Entries after “also recorded” stand apart in the source; their conditions may differ.
What was measured:
HaloTag® protein [1] = test: Binding efficiency to HaloTag protein in lysate (chase with fluorescent HaloTag ligand, SDS-PAGE); conditions: 1 μM, 0-60 min binding; for labeling kinetics / binding efficiency to HaloTag protein in lysate: methotrexate-chloroalkane conjugates, FIG. 3A
Experimental: (§1) a) Binding efficiency to HaloTag® protein in lysate was measured by adding the methotrexate-chloroalkane conjugates to lysate from cells expressing a HaloTag® protein to a final concentration of 1 μM. Following 0-60 mins of binding, the reactions were chased with 1 μM fluorescent HaloTag® ligand. Unbound HaloTag® protein was detected through binding to the fluorescent HaloTag® ligand followed by analysis on SDS-PAGE gel and detection on a fluorescent gel scanner.
as §1, with “adding the dexamethasone-chloroalkane conjugates to” for “adding the methotrexate-chloroalkane conjugates to”, “the fluorescent HaloTag ligand followed” for “the fluorescent HaloTag® ligand followed”

HaloTag® protein [2] = test: Binding efficiency to HaloTag protein in cells (chase with fluorescent HaloTag ligand, SDS-PAGE); type: cell-based; conditions: 10 μM
Experimental: b) Binding efficiency to HaloTag® protein in cells was measured by adding the methotrexate-chloroalkane conjugates to cells expressing a HaloTag® protein to a final concentration of 10 μM. Following 0-120 mins of binding, the reactions were chased with 5 μM fluorescent HaloTag® ligand. Unbound HaloTag® protein was detected through binding to the fluorescent HaloTag® ligand followed by cell lysis, analysis on a SDS-PAGE gel and detection on a fluorescent gel scanner.
b) Binding efficiency to HaloTag® protein in cells was measured by adding the dexamethasone-chloroalkane conjugates to cells expressing a HaloTag® protein to a final concentration of 10 μM. Following 0-60 mins of binding, the reaction was chased with 5 μM fluorescent HaloTag ligand. Unbound HaloTag® protein was detected through binding to the fluorescent HaloTag® ligand followed by cell lysis, analysis on SDS-PAGE gel and detection on a fluorescent gel scanner.

[3] = molecular target: T1, NanoLuc-DHFR fusion protein (Homo sapiens, UniProt P00374); test: Pull-down of NanoLuc-DHFR fusion from living cells onto HALOTAG protein beads; type: cell-based; conditions: HEK293 cells, 10 uM conjugate, 2 h binding, 45 min capture, release with 150 μM methotrexate; FIG. 4
T1 construct: expressed in transfected cells; host or cells: HEK293
T1 sequence (P00374 1-187): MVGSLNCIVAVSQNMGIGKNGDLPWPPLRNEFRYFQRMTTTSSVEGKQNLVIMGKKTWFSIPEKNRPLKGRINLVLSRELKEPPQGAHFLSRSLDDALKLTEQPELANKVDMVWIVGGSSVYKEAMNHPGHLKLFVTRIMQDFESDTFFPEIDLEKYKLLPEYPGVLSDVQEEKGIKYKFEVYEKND
Experimental: HEK293 cells were plated and transfected using PEI with plasmid DNA encoding a NANOLUC-DHFR fusion in wells of a 96-well plate. The DNA was diluted 1:50 with a promoterless carrier DNA plasmid (pCI) to a final concentration of 80 ng total DNA per well. Twenty-four hours post-transfection, cells were serum starved for additional 24 hours and then treated with […] 10 uM PBI-4848 or PBI-5015 while control cells were not treated with the conjugated drug. Following equilibration binding of 2 h, the media was removed, and the cells quickly washed with PBS and lysed in detergent-based lysis buffer for 10 min. Cell lysates were then transferred to wells of a 96-well plate containing 0.5 μl settled paramagnetic HALOTAG protein beads and incubated with shaking for 45 min. Following binding, the unbound fraction was removed, the HALOTAG protein paramagnetic beads washed, 150 μM unconjugated methotrexate added, and the captured NANOLUC:DHFR specifically released from the beads by competition with the unconjugated methotrexate for 60 min. The released NANOLUC:DHFR (+PBI-5015 or +PBI-4848) and control samples were detected by NANOGLO luciferase detection reagent.

[4] = molecular target: T2, glucocorticoid receptor (GR) (Homo sapiens, UniProt P04150); test: Glucocorticoid receptor competitor assay (fluorescence polarization); type: binding; conditions: dexamethasone-chloroalkane conjugates; FIG. 7
T2 construct: purchased Life Technology
T2 sequence (P04150 1-777): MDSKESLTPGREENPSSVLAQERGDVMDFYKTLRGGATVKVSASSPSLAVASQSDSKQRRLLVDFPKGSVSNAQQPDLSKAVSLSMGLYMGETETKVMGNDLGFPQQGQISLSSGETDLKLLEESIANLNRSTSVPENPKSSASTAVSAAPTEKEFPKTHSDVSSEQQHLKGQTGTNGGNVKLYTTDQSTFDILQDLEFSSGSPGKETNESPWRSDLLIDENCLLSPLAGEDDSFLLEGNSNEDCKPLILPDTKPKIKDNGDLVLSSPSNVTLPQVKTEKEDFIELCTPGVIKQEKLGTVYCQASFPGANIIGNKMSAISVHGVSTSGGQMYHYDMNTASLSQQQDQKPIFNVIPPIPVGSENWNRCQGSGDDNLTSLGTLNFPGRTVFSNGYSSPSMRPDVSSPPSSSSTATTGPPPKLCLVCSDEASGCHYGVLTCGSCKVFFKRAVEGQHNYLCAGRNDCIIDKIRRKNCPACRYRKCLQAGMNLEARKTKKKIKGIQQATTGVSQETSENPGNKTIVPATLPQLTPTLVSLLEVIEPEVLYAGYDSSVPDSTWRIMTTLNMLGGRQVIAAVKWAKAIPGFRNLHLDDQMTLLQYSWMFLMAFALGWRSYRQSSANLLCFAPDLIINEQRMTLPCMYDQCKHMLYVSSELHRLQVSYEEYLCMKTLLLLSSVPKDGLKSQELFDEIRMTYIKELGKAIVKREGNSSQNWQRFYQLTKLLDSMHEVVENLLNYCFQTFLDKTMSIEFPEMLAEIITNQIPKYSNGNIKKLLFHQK
Source text: c) Binding efficiency to the target glucocorticoid receptor (GR) was done using the glucocorticoid receptor competitor assay (Life Technology) as recommended by the manufacturer.

NanoLuc:GR fusion = molecular target: T3, NanoLuc:GR fusion (Homo sapiens, UniProt P04150); test: Pull-down of NanoLuc:GR fusion from live cells onto HaloTag protein beads; type: cell-based; conditions: HEK293 cells, 10 μM conjugate, 2 h binding, 45 min capture, release with 150 μM Dexamethasone; FIG. 8
T3 construct: expressed in transfected cells; host or cells: HEK293
T3 sequence (P04150 1-777): T2 sequence (P04150 1-777)
Experimental: HEK293 cells were plated and transfected using PEI with plasmid DNA encoding NanoLuc:GR fusion in wells of a 96-well plate. The DNA was diluted 1:50 with a promoterless carrier DNA plasmid (pCI neo) to a final concentration of 80 ng total DNA per well. Twenty-four hours post-transfection, cells were serum starved for additional 24 hours then incubated with a final concentration of 10 μM PBI-4980 or PBI-4025 while control cells were not treated with the conjugated drug. […] The released NanoLuc:GR (+PBI-4980 or +PBI-4025) and control samples were detected by using the NanoGlo® assay reagent (Promega Corp).

[5] = methotrexate-chloroalkane conjugates, 0-120 min binding, FIG. 3B

SMILES: CN(Cc1cnc2nc(N)nc(N)c2n1)c1ccc(C(=O)NC(CCC(=O)NCCCCCNC(=O)OCCOCCOCCOC(=O)NCCOCCOCCCCCCCl)C(=O)O)cc1 (centres unmarked) [PBI-5015]
- labeling kinetics / binding efficiency to HaloTag protein in lysate (HaloTag® protein [1]): fast labeling kinetics
- cell permeability/binding efficiency to HaloTag protein in cells (HaloTag® protein [2]; [5]): good cell permeability and binding efficiency
- pull-down of Nluc:DHFR fusion from living cells [3]: efficiently pulled down

SMILES: C[C@@H]1CC2[C@@H]3CCC4=CC(=O)C=C[C@]4(C)[C@@]3(F)[C@@H](O)C[C@]2(C)[C@@]1(O)C(=O)NCCCCCNC(=O)OCCOCCOCCOC(=O)NCCOCCOCCCCCCCl (some centres unmarked) [PBI-4980, Dexamethasone Carbamate Chloroalkane]
- binding kinetics to HaloTag protein in lysate (HaloTag® protein [1]; dexamethasone-chloroalkane conjugates, FIG. 6A): faster binding kinetics
- cell permeability/binding efficiency to HaloTag protein in cells (HaloTag® protein [2]; dexamethasone-chloroalkane conjugates, 0-60 min binding, FIG. 6B): best cell permeability/binding efficiency
- affinity / binding efficiency to glucocorticoid receptor [4]: best binding efficiency
- efficiency of Nluc:GR fusion pull down from live cells (NanoLuc:GR fusion): significantly higher than via PBI-4025

SMILES: C[C@@H]1CC2C3CCC4=CC(=O)C=C[C@]4(C)[C@@]3(F)[C@@H](O)C[C@]2(C)[C@@]1(O)C(=O)NCCOCCOCCOCCOCCC(=O)NCCOCCOCCCCCCCl (some centres unmarked) [PBI-4025]
- affinity / binding efficiency to glucocorticoid receptor [4]: highest affinity; also recorded: best binding efficiency; also recorded: higher affinity

SMILES: CN(Cc1cnc2nc(N)nc(N)c2n1)c1ccc(C(=O)NC(CCC(=O)NCCOCCOCCCCCCCl)C(=O)O)cc1 (centres unmarked) [PBI-4848]
- labeling kinetics / binding efficiency to HaloTag protein in lysate (HaloTag® protein [1]): fast labeling kinetics
- cell permeability/binding efficiency to HaloTag protein in cells (HaloTag® protein [2]; [5]): best cell permeability/binding efficiency; also recorded: higher cell permeability
- pull-down of Nluc:DHFR fusion from living cells [3]: only PBI-5015 efficiently pulled down
